In this assay the target is T1, M CPT-I (Homo sapiens, UniProt Q92523).
T1 sequence (Q92523 1-772): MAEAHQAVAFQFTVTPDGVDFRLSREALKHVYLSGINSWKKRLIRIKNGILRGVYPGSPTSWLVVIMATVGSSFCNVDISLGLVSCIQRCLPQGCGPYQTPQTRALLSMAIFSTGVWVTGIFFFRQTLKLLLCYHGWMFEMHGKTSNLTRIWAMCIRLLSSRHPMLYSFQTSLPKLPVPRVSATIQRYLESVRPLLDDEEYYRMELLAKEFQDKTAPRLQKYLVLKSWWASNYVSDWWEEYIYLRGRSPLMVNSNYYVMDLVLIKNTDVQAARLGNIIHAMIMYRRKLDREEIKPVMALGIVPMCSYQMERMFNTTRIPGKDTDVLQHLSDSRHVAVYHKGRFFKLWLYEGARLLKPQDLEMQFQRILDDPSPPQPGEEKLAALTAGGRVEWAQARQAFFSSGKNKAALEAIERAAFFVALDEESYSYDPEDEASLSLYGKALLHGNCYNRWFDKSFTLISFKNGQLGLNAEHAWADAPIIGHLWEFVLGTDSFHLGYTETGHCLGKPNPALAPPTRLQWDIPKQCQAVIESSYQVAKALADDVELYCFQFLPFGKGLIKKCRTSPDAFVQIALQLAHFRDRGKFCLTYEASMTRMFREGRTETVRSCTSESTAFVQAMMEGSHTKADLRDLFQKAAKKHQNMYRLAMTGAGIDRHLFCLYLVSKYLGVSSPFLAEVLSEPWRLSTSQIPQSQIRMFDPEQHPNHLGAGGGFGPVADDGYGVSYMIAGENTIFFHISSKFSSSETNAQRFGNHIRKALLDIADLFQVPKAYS
Briefly: LC/MS HTS assay, malonyl-CoA inhibition of human MCPT-I (palmitoyl-CoA and carnitine converted to palmitoyl carnitine). The format is biochemical. The note with it: FIG. 9B.

pIC50: −log10 of the molar value.

Excerpt: The biological activity used for the assay is the conversion by CPT-1 of palmitoyl-CoA (fatty acid-CoA) and carnitine to palmitoyl carnitine complex and free CoA.
The biological activity used for the assay is the conversion by CPT-1 of palmitoyl-CoA and carnitine to palmitoyl carnitine complex and free CoA.

Broadly, the pIC50 is the IC50 on a negative log10 scale, so that one unit is a factor of ten. A low value points to a high IC50. `CC(C)(COP(=O)(O)OP(=O)(O)OC[C@H]1O[C@@H](n2cnc3c(N)ncnc32)[C@H](O)[C@@H]1OP(=O)(O)O)[C@@H](O)C(=O)NCCC(=O)NCCSC(=O)CC(=O)O` [Malonyl-CoA]: the pIC50 is 7.39.

The record behind these values is US20080305958A1, “Process for Liquid or gas Chromatography/Mass Spectrometry Based Biomolecular Screening for Drug Discovery” (priority 2004, published 2008).
